# Experimental data reported in patent US9833497B2, “Human originated EGF domain proteins and use of the same” (CHENGDU SOURCEBIO LIMITED-LIABILITY COMPANY, priority 2013, dated 2017).
# How the values were obtained:
# Type in all cases: cell-based
# [1] = tested on: Proteus vulgaris; experiment: MIC against Gram-negative bacteria: Proteus vulgaris; conditions: 5×10^5 CFU/mL
# How it was run: (§1)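 Antibacterial activity of purified human EGF domain proteins: two-fold concentration series, triplicate wells, LB broth, 5×10^5 CFU/mL bacteria, 37° C shaking incubation. The lowest concentration without growth defines the MIC.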
# [2] = tested on: Proteus mirabilis; experiment: MIC against Gram-negative bacteria: Proteus mirabilis; conditions: 5×10^5 CFU/mL
# How it was run: as §1
# [3] = tested on: Moraxella catarrhalis; experiment: MIC against Gram-negative bacteria: Moraxella catarrhalis; conditions: 5×10^5 CFU/mL
# How it was run: as §1
# [4] = tested on: Enterobacter cloacae; experiment: MIC against Gram-negative bacteria: Enterobacter cloacae; conditions: 5×10^5 CFU/mL
# How it was run: as §1
# [5] = tested on: Citrobacter diversus; experiment: MIC against Gram-negative bacteria: Citrobacter diversus; conditions: 5×10^5 CFU/mL
# How it was run: as §1
# [6] = tested on: Klebsiella pneumonia; experiment: MIC against Gram-negative bacteria: Klebsiella pneumonia; conditions: 5×10^5 CFU/mL
# How it was run: as §1
# [7] = tested on: Serratia marcescens; experiment: MIC against Gram-negative bacteria: Serratia marcescens; conditions: 5×10^5 CFU/mL
# How it was run: as §1
# [8] = tested on: E. coli DH5α; experiment: Antibacterial activity: MIC and growth curve against E. coli DH5α in 96-well plate; conditions: minimal inhibitory concentration against E. coli DH5α; 96-well plate, 5×10^5 CFU/mL, 37° C., judged after 8 h
# How it was run: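 Log-phase bacteria (OD600 ~0.5) resuspended in LB at 5×10^5 CFU/mL, exposed to recombinant protein at 50, 25, 12.5 μg/mL final in triplicate, 37 °C shaking at 175 rpm. OD600 read every 30 min; MIC is lowest concentration showing no growth.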
# [9] = tested on: E. coli BL21; experiment: MIC against Gram-negative bacteria: E. coli BL21; conditions: 5×10^5 CFU/mL
# How it was run: as §1
# [10] = tested on: Pseudomonas aeruginosa; experiment: MIC against Gram-negative bacteria: Pseudomonas aeruginosa; conditions: 5×10^5 CFU/mL
# How it was run: as §1
# [11] = tested on: Aeromonas hydrophila; experiment: MIC against Gram-negative bacteria: Aeromonas hydrophila; conditions: 5×10^5 CFU/mL
# How it was run: as §1
# [12] = P. vulgaris, 10 h cultivation at 37° C.
# [13] = P. mirabilis, 10 h cultivation at 37° C.
# [14] = M. catarrhalis, 10 h cultivation at 37° C.
# [15] = E. cloacae, 10 h cultivation at 37° C.
# [16] = C. diversus, 10 h cultivation at 37° C.
# [17] = K. pneumonia, 10 h cultivation at 37° C.
# [18] = S. marcescens, 10 h cultivation at 37° C.
# [19] = E. coli BL21, 10 h cultivation at 37° C.
# [20] = P. aeruginosa, 10 h cultivation at 37° C.
# [21] = A. hydrophila, 10 h cultivation at 37° C.
# [22] = Proteus vulgaris, 96-well plate, 37° C., 10 h
# [23] = Proteus mirabilis, 96-well plate, 37° C., 10 h
# [24] = Moraxella catarrhalis, 96-well plate, 37° C., 10 h
# [25] = Enterobacter cloacae, 96-well plate, 37° C., 10 h
# [26] = Citrobacter diversus, 96-well plate, 37° C., 10 h
# [27] = Klebsiella pneumonia, 96-well plate, 37° C., 10 h
# [28] = Serratia marcescens, 96-well plate, 37° C., 10 h
# [29] = E. coli BL21, 96-well plate, 37° C., 10 h
# [30] = Pseudomonas aeruginosa, 96-well plate, 37° C., 10 h
# [31] = Aeromonas hydrophila, 96-well plate, 37° C., 10 h
substance,measurement,setting,value
PRT166 (NGSPCQHGGTCVDDEGRASHASCLCPPGFSGNFCE; listed as Homo sapiens),MIC (μg/mL) P. vulgaris,[1]; [12],12.5 µg/mL
same,MIC (μg/mL) P. mirabilis,[2]; [13],12.5 µg/mL
same,MIC (μg/mL) M. catarrhalis,[3]; [14],12.5 µg/mL
same,MIC (μg/mL) E. cloacae,[4]; [15],12.5 µg/mL
same,MIC (μg/mL) C. diversus,[5]; [16],12.5 µg/mL
same,MIC (μg/mL) K. pneumonia,[6]; [17],25 µg/mL
same,MIC (μg/mL) S. marcescens,[7]; [18],50 µg/mL
same,MIC,[8],12.5 µg/mL
same,MIC (μg/mL) E. coli BL21,[9]; [19],25 µg/mL
same,MIC (μg/mL) P. aeruginosa,[10]; [20],12.5 µg/mL
same,MIC (μg/mL) A. hydrophila,[11]; [21],12.5 µg/mL
PRT497 (CACPHSPPASFSPTCVLEGDHDFRCDACLLGYEGKHCERCSSSYYGNPQTPGGSCQK; listed as Homo sapiens),MIC against P. vulgaris,"[1]; 96-well plate, 37° C., 10 h",12.5 µg/mL
same,MIC against P. mirabilis,"[2]; 96-well plate, 37° C., 10 h",50 µg/mL
same,MIC against M. catarrhalis,"[3]; 96-well plate, 37° C., 10 h",12.5 µg/mL
same,MIC against E. cloacae,"[4]; 96-well plate, 37° C., 10 h",25 µg/mL
same,MIC against C. diversus,"[5]; 96-well plate, 37° C., 10 h",25 µg/mL
same,MIC against K. pneumonia,"[6]; 96-well plate, 37° C., 10 h",12.5 µg/mL
same,MIC against S. marcescens,"[7]; 96-well plate, 37° C., 10 h",50 µg/mL
same,MIC,[8],12.5 µg/mL
same,MIC against E. coli BL21,"[9]; 96-well plate, 37° C., 10 h",25 µg/mL
same,MIC against P. aeruginosa,"[10]; 96-well plate, 37° C., 10 h",50 µg/mL
same,MIC against A. hydrophila,"[11]; 96-well plate, 37° C., 10 h",50 µg/mL
PRT37 (IGVDCSDGFNGGCEQLCLQQMAPFPDDPTLYNILMFCGCIEDYKLGVDGRSCQ; listed as Homo sapiens),MIC (μg/mL) P. vulgaris,[1]; [22],25 µg/mL
same,MIC (μg/mL) P. mirabilis,[2]; [23],12.5 µg/mL
same,MIC (μg/mL) M. catarrhalis,[3]; [24],12.5 µg/mL
same,MIC (μg/mL) E. cloacae,[4]; [25],12.5 µg/mL
same,MIC (μg/mL) C. diversus,[5]; [26],25 µg/mL
same,MIC (μg/mL) K. pneumonia,[6]; [27],25 µg/mL
same,MIC (μg/mL) S. marcescens,[7]; [28],12.5 µg/mL
same,MIC,[8],25 µg/mL
same,MIC (μg/mL) E. coli BL21,[9]; [29],50 µg/mL
same,MIC (μg/mL) P. aeruginosa,[10]; [30],25 µg/mL
same,MIC (μg/mL) A. hydrophila,[11]; [31],12.5 µg/mL
PRT1202 (GYDFCSERHNCMENSICRNLNDRAVCSCRDGFRALREDNAYCE; listed as Homo sapiens),MIC against P. vulgaris,[1]; [22],25 µg/mL
same,MIC against P. mirabilis,[2]; [23],12.5 µg/mL
same,MIC against M. catarrhalis,[3]; [24],50 µg/mL
same,MIC against E. cloacae,[4]; [25],12.5 µg/mL
same,MIC against C. diversus,[5]; [26],12.5 µg/mL
same,MIC against K. pneumonia,[6]; [27],50 µg/mL
same,MIC against S. marcescens,[7]; [28],50 µg/mL
same,MIC,[8],50 µg/mL
same,MIC against E. coli BL21,[9]; [29],12.5 µg/mL
same,MIC against P. aeruginosa,[10]; [30],25 µg/mL
same,MIC against A. hydrophila,[11]; [31],50 µg/mL
PRT201 (NMSSCPLDSKGKVCSGHGVCSNEATCICDFTWAGTDCS; listed as Homo sapiens),MIC (μg/mL) P. vulgaris,[1]; [12],50 µg/mL
same,MIC (μg/mL) P. mirabilis,[2]; [13],25 µg/mL
same,MIC (μg/mL) M. catarrhalis,[3]; [14],12.5 µg/mL
same,MIC (μg/mL) E. cloacae,[4]; [15],50 µg/mL
same,MIC (μg/mL) C. diversus,[5]; [16],50 µg/mL
same,MIC (μg/mL) K. pneumonia,[6]; [17],12.5 µg/mL
same,MIC (μg/mL) S. marcescens,[7]; [18],25 µg/mL
same,MIC,[8],50 µg/mL
same,MIC (μg/mL) E. coli BL21,[9]; [19],12.5 µg/mL
same,MIC (μg/mL) P. aeruginosa,[10]; [20],50 µg/mL
same,MIC (μg/mL) A. hydrophila,[11]; [21],12.5 µg/mL
PRT1443 (NHMPCPENLNGYCIHGKCEFIYSTQKASCRCESGYTGQHCE; listed as Homo sapiens),MIC against P. vulgaris,"[1]; Proteus vulgaris, 10 h cultivation at 37° C.",25 µg/mL
same,MIC against P. mirabilis,"[2]; Proteus mirabilis, 10 h cultivation at 37° C.",12.5 µg/mL
same,MIC against M. catarrhalis,"[3]; Moraxella catarrhalis, 10 h cultivation at 37° C.",25 µg/mL
same,MIC against E. cloacae,"[4]; Enterobacter cloacae, 10 h cultivation at 37° C.",25 µg/mL
same,MIC against C. diversus,"[5]; Citrobacter diversus, 10 h cultivation at 37° C.",25 µg/mL
same,MIC against K. pneumonia,"[6]; Klebsiella pneumonia, 10 h cultivation at 37° C.",12.5 µg/mL
same,MIC against S. marcescens,"[7]; Serratia marcescens, 10 h cultivation at 37° C.",50 µg/mL
same,MIC,[8],25 µg/mL
same,MIC against E. coli BL21,[9]; [19],50 µg/mL
same,MIC against P. aeruginosa,"[10]; Pseudomonas aeruginosa, 10 h cultivation at 37° C.",25 µg/mL
same,MIC against A. hydrophila,"[11]; Aeromonas hydrophila, 10 h cultivation at 37° C.",50 µg/mL
PRT1200 (DIDECSEGIIECHNHSRCVNLPGWYHCECRSGFHDDGTY; listed as Homo sapiens),MIC against P. vulgaris,[1]; [22],12.5 µg/mL
same,MIC against P. mirabilis,[2]; [23],25 µg/mL
same,MIC against M. catarrhalis,[3]; [24],50 µg/mL
same,MIC against E. cloacae,[4]; [25],25 µg/mL
same,MIC against C. diversus,[5]; [26],12.5 µg/mL
same,MIC against K. pneumonia,[6]; [27],12.5 µg/mL
same,MIC against S. marcescens,[7]; [28],50 µg/mL
same,MIC,[8],12.5 µg/mL
same,MIC against E. coli BL21,[9]; [29],12.5 µg/mL
same,MIC against P. aeruginosa,[10]; [30],12.5 µg/mL
same,MIC against A. hydrophila,[11]; [31],25 µg/mL
